Earlier results as cited in PubChem BioAssay AID1259409 (Chemical Carcinogenesis Research Information System (CCRIS), 2018).

Tested on: rodent chemically induced tumor inhibition, incidence and multiplicity
Assay: CCRIS tumor inhibitor studies
Settings: for outcome: Carcinogen: DIMETHYLBENZ[A]ANTHRACENE, Dose [Carcinogen]: 10 NMOL ONCE, Promoter: 12-O-TETRADECANOYLPHORBOL-13-ACETATE, 16561-29-8

SMILES: C[Se]CCC(N)C(=O)O (centres undefined)
- tumour outcome (control, treated, inhibition, significance) (Carcinogen: 3'-METHYL-4-DIMETHYLAMINOAZOBENZENE, 55-80-1, Dose [Inhibitor]: 118 UG SELENIUM AS HIGH SELENIUM YEAST/GM IN DIET DAILY STARTING 1 WK PRIOR TO START OF CARCINOGEN TREATMENT AND CONTINU, Route [Inhibitor]: ORAL, Species: RAT, Strain/Sex: SPRAGUE-DAWLEY/MALE, Target Tissue: Type of Lesion: LIVER: ADENOCARCINOMA, Dose [Carcinogen]: 0.05% IN DIET DAILY FOR 8 WK, Promoter: NONE USED): 11/12 (92%), 9/14 (64%), 30%, p 0.04
- tumour outcome (control, treated, inhibition, significance) (Carcinogen: 4-(METHYLNITROSAMINO)-1-(3-PYRIDYL)-1-BUTANONE, 64091-91-4, Dose [Inhibitor]: 0, 3.75 PPM IN DIET FOR 3 WK BEGINNING 1 WK PRIOR TO CARCINOGEN DOSE (STUDY DURATION: 18 WK), Route [Inhibitor]: ORAL, Species: MOUSE, Strain/Sex: STRAIN-A/FEMALE, Target Tissue: Type of Lesion: LUNG: TUMOR, Dose [Carcinogen]: 10 UMOL IN 0.1 ML SALINE ONCE, Promoter: NONE USED): 100%, 96%, 4%, not significant
- tumour outcome (control, treated, inhibition, significance) (Carcinogen: 4-(METHYLNITROSAMINO)-1-(3-PYRIDYL)-1-BUTANONE, 64091-91-4, Dose [Inhibitor]: 0, 3.75 PPM IN DIET FOR 15 WK BEGINNING 1 WK POST CARCINOGEN DOSE (STUDY DURATION: 18 WK), Route [Inhibitor]: ORAL, Species: MOUSE, Strain/Sex: STRAIN-A/FEMALE, Target Tissue: Type of Lesion: LUNG: TUMOR, Dose [Carcinogen]: 10 UMOL IN 0.1 ML SALINE ONCE, Promoter: NONE USED): 100%, 100%, 0%, not significant
- tumour outcome (control, treated, inhibition, significance) (Carcinogen: 7,12-DIMETHYLBENZ[A]ANTHRACENE (DMBA) [57-97-6], Dose [Inhibitor]: 20 UG/D GIVEN 2 WK BEFORE DMBA AND DAILY FOR 1 WK (STUDY DURATION: 120 D), Route [Inhibitor]: ORAL (GAVAGE), Species: RAT, Strain/Sex: WISTAR/FEMALE (12,?)/(12,12), Target Tissue: Type of Lesion: MAMMARY GLAND: CARCINOMA, Dose [Carcinogen]: 12 MG ONCE (STUDY DURATION: 120 D)): 33%, 0%, 100%
- tumour outcome (control, treated, inhibition, significance) (Carcinogen: 7,12-DIMETHYLBENZ[A]ANTHRACENE, 57-97-6, Dose [Inhibitor]: 0, 0.2 PPM IN DIET BEGINNING 3 D PRIOR TO CARCINOGEN DOSE AND CONTINUING FOR 8 MO (STUDY DURATION: 8 MO), Route [Inhibitor]: ORAL, Species: MOUSE, Strain/Sex: BALB/FEMALE, Target Tissue: Type of Lesion: MAMMARY GLAND: ADENOCARCINOMA, Dose [Carcinogen]: 1 MG/WK FOR 6 WK, Promoter: NONE USED): 12/31 (39%), 6/21 (29%), 26%, not calculated
- tumour outcome (control, treated, inhibition, significance) (Carcinogen: 7,12-DIMETHYLBENZ[A]ANTHRACENE, 57-97-6, Dose [Inhibitor]: 0, 2 PPM IN DIET BEGINNING 3 D PRIOR TO CARCINOGEN DOSE AND CONTINUING FOR 8 MO (STUDY DURATION: 8 MO), Route [Inhibitor]: ORAL, Species: MOUSE, Strain/Sex: BALB/FEMALE, Target Tissue: Type of Lesion: MAMMARY GLAND: ADENOCARCINOMA, Dose [Carcinogen]: 1 MG/WK FOR 6 WK, Promoter: NONE USED): 12/31 (39%), 6/23 (26%), 33%, not calculated
- tumour outcome (control, treated, inhibition, significance) (Carcinogen: AZOXYMETHANE [25843-45-2], Dose [Inhibitor]: 10 PPM IN DIET FOR 56 WK BEGINNING 2 WK PRIOR TO FIRST CARCINOGEN DOSE (STUDY DURATION: 56 WK), Route [Inhibitor]: ORAL, Species: RAT, Strain/Sex: F344/MALE, Target Tissue: Type of Lesion: COLON: ADENOMA OR ADENOCARCINOMA, Dose [Carcinogen]: 15 MG/KG BW 1X/WK FOR 2 WK (STUDY DURATION: 56 WK), Promoter: NONE): 76%, 64%, 16%, not significant
- tumour outcome (control, treated, inhibition, significance) (Carcinogen: AZOXYMETHANE [25843-45-2], Dose [Inhibitor]: 15 PPM IN DIET FOR 56 WK BEGINNING 2 WK PRIOR TO FIRST CARCINOGEN DOSE (STUDY DURATION: 56 WK), Route [Inhibitor]: ORAL, Species: RAT, Strain/Sex: F344/MALE, Target Tissue: Type of Lesion: COLON: ADENOMA OR ADENOCARCINOMA, Dose [Carcinogen]: 15 MG/KG BW 1X/WK FOR 2 WK (STUDY DURATION: 56 WK), Promoter: NONE): 76%, 89%, -17%, not significant
- tumour outcome (control, treated, inhibition, significance) (Carcinogen: N-METHYL-N-NITROSOUREA, 684-93-5, Dose [Inhibitor]: 5 PPM IN DIET DAILY FOR 128 D STARTING 7 D AFTER CARCINOGEN TREATMENT AND CONTINUING FOR DURATION OF STUDY (STUDY DURATI, Route [Inhibitor]: ORAL, Species: RAT, Strain/Sex: SPRAGUE-DAWLEY/FEMALE, Target Tissue: Type of Lesion: MAMMARY GLAND: CARCINOMA, Dose [Carcinogen]: 50 MG/KG BW IN ACIDIFIED SALINE (PH 4.0) ONCE AT AGE 50 D, Promoter: NONE USED): 90%, 95%, -6%, not significant
- tumour outcome (control, treated, inhibition, significance) (Carcinogen: N-METHYL-N-NITROSOUREA, 684-93-5, Dose [Inhibitor]: 6 PPM IN DIET DAILY FOR 128 D STARTING 7 D AFTER CARCINOGEN TREATMENT AND CONTINUING FOR DURATION OF STUDY (STUDY DURATI, Route [Inhibitor]: ORAL, Species: RAT, Strain/Sex: SPRAGUE-DAWLEY/FEMALE, Target Tissue: Type of Lesion: MAMMARY GLAND: CARCINOMA, Dose [Carcinogen]: 50 MG/KG BW IN ACIDIFIED SALINE (PH 4.0) ONCE AT AGE 50 D, Promoter: NONE USED): 90%, 80%, 11%, not significant
- tumour outcome (control, treated, inhibition, significance) (Carcinogen: NONE USED, Dose [Inhibitor]: 1 PPM IN DIET DAILY STARTING AT AGE 13.8 MO AND CONTINUING FOR LIFE (STUDY DURATION: LIFE), Route [Inhibitor]: ORAL, Species: MOUSE, Strain/Sex: C3H/FEMALE, Target Tissue: Type of Lesion: MAMMARY GLAND: ADENOCARCINOMA, Promoter: NONE USED): 20/26 (77%), 12/26 (46%), 40%, p<0.05
- tumour outcome (control, treated, inhibition, significance) (Carcinogen: NONE USED, Dose [Inhibitor]: 1 PPM IN DIET DAILY STARTING AT WEANING AND CONTINUING FOR LIFE (STUDY DURATION: LIFE), Route [Inhibitor]: ORAL, Species: MOUSE, Strain/Sex: C3H/FEMALE, Target Tissue: Type of Lesion: MAMMARY GLAND: ADENOCARCINOMA, Promoter: NONE USED): 20/26 (77%), 7/26 (27%), 65%, p<0.005
- tumour outcome (control, treated, inhibition, significance) (Carcinogen: NONE USED, Dose [Inhibitor]: 1 PPM IN DIET DAILY STARTING AT WEANING AND CONTINUING THROUGH AGE 13.8 MO FOL LOWED BY CONTROL DIET FOR LIFE (STUDY DUR, Route [Inhibitor]: ORAL, Species: MOUSE, Strain/Sex: C3H/FEMALE, Target Tissue: Type of Lesion: MAMMARY GLAND: ADENOCARCINOMA, Promoter: NONE USED): 20/26 (77%), 18/26 (69%), 10%, not significant

SMILES: Cc1occc(=O)c1O
- tumour outcome (control, treated, inhibition, significance) (Carcinogen: BENZO[A]PYRENE, 50-32-8, Dose [Inhibitor]: 0.034 MMOL/G IN DIET BEGINNING 1 WK PRIOR TO CARCINOGEN DOSE AND CONTINUING FOR 3 D POST LAST CARCINOGEN DOSE (STUDY DUR, Route [Inhibitor]: ORAL, Species: MOUSE, Strain/Sex: ICR/FEMALE, Target Tissue: Type of Lesion: FORESTOMACH: TUMOR, Dose [Carcinogen]: 1 MG IN 0.2 ML CORN OIL 2/WK FOR 4 WK, Promoter: NONE USED): 94%, 100%, -6%, not significant

SMILES: CCCCCCCCCCCCCCCC(=O)OC[C@H](O)[C@H]1OC(=O)C(O)=C1O
- tumour outcome (control, treated, inhibition, significance) (Carcinogen: 7,12-DIMETHYLBENZ[A]ANTHRACENE, 57-97-6, Dose [Inhibitor]: 0, 1 UMOL 1/WK 5 MIN PRIOR TO EACH PROMOTER DOSE BEGINNING 2 WK POST CARCINOGEN DOSE AND CONTINUING FOR 27 WK (STUDY DUR, Route [Inhibitor]: DERMAL, Species: MOUSE, Strain/Sex: SENCAR/FEMALE, Target Tissue: Type of Lesion: SKIN: PAPILLOMA, Dose [Carcinogen]: 25 NMOL ONCE, Promoter: CHRYSAROBIN, 491-58-7): 100%, 88%, 12%, not significant
- tumour outcome (control, treated, inhibition, significance) (Carcinogen: 7,12-DIMETHYLBENZ[A]ANTHRACENE, 57-97-6, Dose [Inhibitor]: 0, 4 UMOL 1/WK 5 MIN PRIOR TO EACH PROMOTER DOSE BEGINNING 2 WK POST CARCINOGEN DOSE AND CONTINUING FOR 27 WK (STUDY DUR, Route [Inhibitor]: DERMAL, Species: MOUSE, Strain/Sex: SENCAR/FEMALE, Target Tissue: Type of Lesion: SKIN: PAPILLOMA, Dose [Carcinogen]: 25 NMOL ONCE, Promoter: CHRYSAROBIN, 491-58-7): 100%, 90%, 10%, not significant

SMILES: Cc1cc2cc3ccc4cccc5ccc(c2oc1=O)c3c45
- outcome (57-97-6, Dose [Inhibitor]: 0, 200 NMOL IN ACETONE ONCE 5 MIN PRIOR TO CARCINOGEN DOSE (STUDY DURATION: 14 WK), Route [Inhibitor]: DERMAL, Species: MOUSE, Strain/Sex: SENCAR/FEMALE, Target Tissue: Type of Lesion: SKIN: PAPILLOMA): 8.9, 2.8, 69%, p<0.05
- outcome (57-97-6, Dose [Inhibitor]: 0, 200 NMOL IN ACETONE ONCE 24 HR PRIOR TO CARCINOGEN DOSE (STUDY DURATION: 14 WK), Route [Inhibitor]: DERMAL, Species: MOUSE, Strain/Sex: SENCAR/FEMALE, Target Tissue: Type of Lesion: SKIN: PAPILLOMA): 8.9, 2.1, 76%, p<0.05
- outcome (57-97-6, Dose [Inhibitor]: 0, 400 NMOL IN ACETONE ONCE 5 MIN PRIOR TO CARCINOGEN DOSE (STUDY DURATION: 14 WK), Route [Inhibitor]: DERMAL, Species: MOUSE, Strain/Sex: SENCAR/FEMALE, Target Tissue: Type of Lesion: SKIN: PAPILLOMA): 8.9, 3.3, 63%, p<0.05
